Experimental data as given in US20240360178A1, “MACROCYCLIC IMMUNOMODULATORS” (Bristol-Myers Squibb Company, priority 2021, published 2024).
Positions of bridges follow the written chain, without caps; N, C: chain ends. Non-standard residues stand in square brackets, D forms with d. Residues, ends and D or L forms follow the SMILES beside them. ξ: configuration not given here. *: point of attachment. Tyr(3,5-Br2) = N[C@@H](Cc1cc(Br)c(O)c(Br)c1)C(=O)O; Bip = N[C@@H](Cc1ccc(-c2ccccc2)cc1)C(=O)O; Phe(4-CN) = N#Cc1ccc(C[C@H](N)C(=O)O)cc1; Val(3-OH) = CC(C)(O)[C@H](N)C(=O)O; NMeF = CN[C@@H](Cc1ccccc1)C(=O)O; hArg = N=C(N)NCCCC[C@H](N)C(=O)O; 4Pal = N[C@@H](Cc1ccncc1)C(=O)O; Cha = N[C@@H](CC1CCCCC1)C(=O)O; Thr(3ξ) = CC(O)[C@H](N)C(=O)O; dPip = O=C(O)[C@H]1CCCCN1; Carboxymethyl = O=C(O)C*; NMeA = CN[C@@H](C)C(=O)O; Orn = NCCC[C@H](N)C(=O)O; dNMeA = CN[C@H](C)C(=O)O; Dab = NCC[C@H](N)C(=O)O; Nva = CCC[C@H](N)C(=O)O; Abu = CC[C@H](N)C(=O)O; Dap = NC[C@H](N)C(=O)O; Sar = CNCC(=O)O

Target: T1, human PD-1 (Jurkat-PD-1 cells) / PE-labeled human PD-L1-Ig (Homo sapiens, UniProt Q15116)
T1 construct: expressed in transfected cells; host or cells: Jurkat cell line over-expressing human PD-1
Experiment: Jurkat-PD-1 Cell Binding High-Content Screening Assay (CBA); Jurkat hPD1-PDL1 assay
Settings: Jurkat cell line over-expressing human PD-1; PE-labeled PD-L1-Ig 20 nM final; compound incubated 2 hours at 37° C.; read-out: Jurkat HPD1-PDL1 IC50
Summary of the method: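 Binding of phycoerythrin-conjugated PD-L1-Ig (20 nM final) to PD-1-overexpressing Jurkat cells was read by high-content imaging. Cells in DMEM/10% FCS were exposed to compound for 2 hours at 37° C before labeled ligand was added.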

T1 sequence (Q15116 25-288): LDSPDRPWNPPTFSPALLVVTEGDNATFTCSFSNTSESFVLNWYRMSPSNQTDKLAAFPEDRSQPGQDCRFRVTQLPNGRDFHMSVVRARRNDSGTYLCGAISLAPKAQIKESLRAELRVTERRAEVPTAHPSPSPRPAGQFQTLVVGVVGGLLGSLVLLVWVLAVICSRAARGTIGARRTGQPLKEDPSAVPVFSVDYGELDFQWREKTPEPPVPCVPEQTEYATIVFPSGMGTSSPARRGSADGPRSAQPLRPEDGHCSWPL

CC(C)C[C@@H]1NC(=O)[C@H](CCCNC(=N)N)NC(=O)[C@H](Cc2ccccc2)N(C)C(=O)[C@H](C)N(C)C(=O)[C@H](CCC(=O)O)NC(=O)[C@H](Cc2ccc(-c3ccccc3)cc2)NC(=O)[C@H](C(C)C)NC(=O)[C@H](Cc2c[nH]c3ccccc23)NC(=O)[C@H](CC(=O)O)NC(=O)[C@H](Cc2ccc(O)cc2)NC(=O)[C@H](CC(N)=O)NC(=O)CSC[C@@H](C(=O)N[C@@H](C)C(N)=O)NC(=O)[C@H](CCCN)NC(=O)[C@H](C(C)C)NC1=O [Example 1378] ({CH2CO}-NYDWV[Bip]E[NMeA][NMeF]RLV[Orn]CA-NH2; thioether N-14)
IC50: 110 nM

CC(C)C[C@@H]1NC(=O)[C@H](CCCNC(=N)N)NC(=O)CN(C)C(=O)[C@H](C)N(C)C(=O)[C@H](C(C)C)NC(=O)[C@H](Cc2ccc(-c3ccccc3)cc2)NC(=O)[C@H](Cc2ccc(O)cc2)NC(=O)[C@H](Cc2c[nH]c3ccccc23)NC(=O)[C@H](CC(=O)O)NC(=O)[C@H](Cc2ccc(O)cc2)NC(=O)[C@H](Cc2ccccc2)NC(=O)CSC[C@@H](C(=O)NCC(N)=O)NC(=O)[C@H](CO)NC(=O)[C@H](C(C)C)NC1=O [Example 1236] ({CH2CO}-FYDWY[Bip]V[NMeA][Sar]RLVSCG-NH2; thioether N-14)
IC50: 440 nM

CC(C)C[C@@H]1NC(=O)[C@H](CCCNC(=N)N)NC(=O)[C@H](Cc2ccccc2)N(C)C(=O)[C@H](C)N(C)C(=O)[C@H](CCCNC(=N)N)NC(=O)[C@H](Cc2ccc(-c3ccccc3)cc2)NC(=O)[C@H](C(C)C)NC(=O)[C@H](Cc2c[nH]c3ccccc23)NC(=O)[C@H](CC(=O)O)NC(=O)[C@H](Cc2ccccc2)NC(=O)[C@H](Cc2ccccc2)NC(=O)CSC[C@@H](C(=O)NCC(N)=O)NC(=O)[C@H](CO)NC(=O)[C@H](C(C)C)NC1=O [Example 1238] ({CH2CO}-FFDWV[Bip]R[NMeA][NMeF]RLVSCG-NH2; thioether N-14)
IC50: 170 nM

CCC[C@@H]1NC(=O)[C@H](Cc2c[nH]c3ccccc23)NC(=O)[C@H](CC(=O)O)NC(=O)[C@H](Cc2ccc(O)cc2)NC(=O)[C@H](Cc2ccccc2)NC(=O)CSC[C@@H](C(=O)NCC(N)=O)NC(=O)[C@H](CO)NC(=O)[C@H](C(C)C)NC(=O)[C@H](CC(C)C)NC(=O)[C@H](CCCNC(=N)N)NC(=O)[C@H](Cc2ccccc2)N(C)C(=O)[C@H](C)N(C)C(=O)[C@H](CCCNC(=N)N)NC(=O)[C@H](Cc2ccc(-c3ccccc3)cc2)NC1=O [Example 1335] ({CH2CO}-FYDW[Nva][Bip]R[NMeA][NMeF]RLVSCG-NH2; thioether N-14)
IC50: 140 nM

CC(C)C[C@@H]1NC(=O)[C@H](CC(C)C)NC(=O)[C@H](CCCNC(=N)N)NC(=O)[C@H](Cc2ccccc2)N(C)C(=O)[C@H](C)N(C)C(=O)[C@H](CCCNC(=N)N)NC(=O)[C@H](Cc2ccc(-c3ccccc3)cc2)NC(=O)[C@H](C(C)C)NC(=O)[C@H](Cc2c[nH]c3ccccc23)NC(=O)[C@H](CC(=O)O)NC(=O)[C@H](Cc2ccc(O)cc2)NC(=O)[C@H](Cc2ccccc2)NC(=O)CSC[C@@H](C(=O)NCC(N)=O)NC(=O)[C@H](CO)NC1=O [Example 1325] ({CH2CO}-FYDWV[Bip]R[NMeA][NMeF]RLLSCG-NH2; thioether N-14)
IC50: 590 nM

CC(C)C[C@@H]1NC(=O)[C@H](Cc2c[nH]c3ccccc23)NC(=O)[C@H](CC(=O)O)NC(=O)[C@H](Cc2ccc(O)cc2)NC(=O)[C@H](Cc2ccccc2)NC(=O)CSC[C@@H](C(=O)N[C@@H](C)C(N)=O)NC(=O)[C@H](CO)NC(=O)[C@H](C(C)C)NC(=O)[C@H](CC(C)C)NC(=O)[C@H](CCC(N)=O)NC(=O)[C@H]2CCCN2C(=O)[C@H](C)N(C)C(=O)[C@H](C(C)C)NC(=O)[C@H](Cc2ccc(-c3ccccc3)cc2)NC1=O [Example 1037] ({CH2CO}-FYDWL[Bip]V[NMeA][dP]QLVSCA-NH2; thioether N-14)
IC50: 70 nM

CC(C)C[C@@H]1NC(=O)[C@H](Cc2c[nH]c3ccccc23)NC(=O)[C@H](CC(=O)O)NC(=O)[C@H](Cc2cc(Br)c(O)c(Br)c2)NC(=O)[C@H](Cc2ccccc2)NC(=O)CSC[C@@H](C(=O)N[C@@H](C)C(N)=O)NC(=O)[C@H](CO)NC(=O)[C@H](C(C)C)NC(=O)[C@H](CC(C)C)NC(=O)[C@H](CC(N)=O)NC(=O)CN(C)C(=O)[C@H](C)N(C)C(=O)[C@H](C(C)C)NC(=O)[C@H](Cc2ccc(-c3ccccc3)cc2)NC1=O [Example 1113] ({CH2CO}-F[Tyr(3,5-Br2)]DWL[Bip]V[NMeA][Sar]NLVSCA-NH2; thioether N-14)
IC50: 370 nM

CC(C)C[C@@H]1NC(=O)[C@H](CCCNC(=N)N)NC(=O)[C@H](Cc2ccccc2)N(C)C(=O)[C@H](C)N(C)C(=O)[C@H](CCCCNC(=N)N)NC(=O)[C@H](Cc2ccc(-c3ccccc3)cc2)NC(=O)[C@H](C(C)C)NC(=O)[C@H](Cc2c[nH]c3ccccc23)NC(=O)[C@H](CC(=O)O)NC(=O)[C@H](Cc2ccc(O)cc2)NC(=O)[C@H](Cc2ccccc2)NC(=O)CSC[C@@H](C(=O)NCC(N)=O)NC(=O)[C@H](CO)NC(=O)[C@H](C(C)C)NC1=O [Example 1244] ({CH2CO}-FYDWV[Bip][hArg][NMeA][NMeF]RLVSCG-NH2; thioether N-14)
IC50: 190 nM

CC(C)C[C@@H]1NC(=O)[C@H](Cc2c[nH]c3ccccc23)NC(=O)[C@H](CC(=O)O)NC(=O)[C@H](Cc2ccc(O)cc2)NC(=O)[C@H](Cc2ccc(C#N)cc2)NC(=O)CSC[C@@H](C(=O)NCC(N)=O)NC(=O)[C@H](CO)NC(=O)[C@H](C(C)C)NC(=O)[C@H](CC(C)C)NC(=O)[C@H](CC(N)=O)NC(=O)CN(C)C(=O)[C@H](C)N(C)C(=O)[C@H](C(C)C)NC(=O)[C@H](Cc2ccc(-c3ccccc3)cc2)NC1=O [Example 1128] ({CH2CO}-[Phe(4-CN)]YDWL[Bip]V[NMeA][Sar]NLVSCG-NH2; thioether N-14)
IC50: 490 nM

CC(C)C[C@@H]1NC(=O)[C@H](CCCNC(=N)N)NC(=O)[C@H](Cc2ccccc2)N(C)C(=O)[C@H](C)N(C)C(=O)[C@H](CCCNC(=N)N)NC(=O)[C@H](Cc2ccc(-c3ccccc3)cc2)NC(=O)[C@H](C(C)C)NC(=O)[C@H](Cc2c[nH]c3ccccc23)NC(=O)[C@H](CC(=O)O)NC(=O)[C@H](Cc2ccc(O)cc2)NC(=O)[C@H](CC(N)=O)NC(=O)CSC[C@@H](C(=O)N[C@@H](C)C(N)=O)NC(=O)[C@H](CCCN)NC(=O)[C@H](C(C)C)NC1=O [Example 1373] ({CH2CO}-NYDWV[Bip]R[NMeA][NMeF]RLV[Orn]CA-NH2; thioether N-14)
IC50: 180 nM

CC(C)[C@@H]1NC(=O)[C@H](Cc2c[nH]c3ccccc23)NC(=O)[C@H](CC(=O)O)NC(=O)[C@H](Cc2ccncc2)NC(=O)[C@H](CN)NC(=O)CSC[C@@H](C(=O)NCC(N)=O)NC(=O)[C@H](C(C)O)NC(=O)[C@H](C(C)C)NC(=O)[C@H](CC2CCCCC2)NC(=O)[C@H](CCN)NC(=O)[C@@H](C)N(C)C(=O)[C@H](CCCN)NC(=O)[C@H](CN)NC(=O)[C@H](Cc2ccc(-c3ccccc3)cc2)NC1=O (stereo partly shown) [Example 1434] ({CH2CO}-[Dap][4Pal]DWV[Bip][Dap][Orn][dNMeA][Dab][Cha]V[Thr(3ξ)]CG-NH2; thioether N-14)
IC50: 100 nM

CC(C)C[C@@H]1NC(=O)[C@H](Cc2c[nH]c3ccccc23)NC(=O)[C@H](CC(=O)O)NC(=O)[C@H](Cc2ccc(O)cc2)NC(=O)[C@H](Cc2ccccc2)NC(=O)CSC[C@@H](C(=O)N[C@@H](C)C(N)=O)NC(=O)[C@H](Cc2cnc[nH]2)NC(=O)[C@H](C(C)C)NC(=O)[C@H](CC(C)C)NC(=O)[C@H](CC(N)=O)NC(=O)CN(C)C(=O)[C@H](C)N(C)C(=O)[C@H](C(C)C)NC(=O)[C@H](Cc2ccc(-c3ccccc3)cc2)NC1=O [Example 1127] ({CH2CO}-FYDWL[Bip]V[NMeA][Sar]NLVHCA-NH2; thioether N-14)
IC50: 480 nM

CC(C)C[C@@H]1NC(=O)[C@H](Cc2c[nH]c3ccccc23)NC(=O)[C@H](CC(=O)O)NC(=O)[C@H](Cc2ccc(O)cc2)NC(=O)[C@H](Cc2ccccc2)NC(=O)CSC[C@@H](C(=O)N[C@@H](C)C(N)=O)NC(=O)[C@H](CO)NC(=O)[C@H](C(C)C)NC(=O)[C@H](CC(C)C)NC(=O)[C@H](CCC(=O)O)NC(=O)[C@H]2CCCN2C(=O)[C@H](C)N(C)C(=O)[C@H](CCC(=O)O)NC(=O)[C@H](Cc2ccc(-c3ccccc3)cc2)NC1=O [Example 1177] ({CH2CO}-FYDWL[Bip]E[NMeA][dP]ELVSCA-NH2; thioether N-14)
IC50: 240 nM

CC(C)C[C@@H]1NC(=O)[C@H](CCCNC(=N)N)NC(=O)[C@H](Cc2ccccc2)N(C)C(=O)[C@H](C)N(C)C(=O)[C@H](CCCNC(=N)N)NC(=O)[C@H](Cc2ccc(-c3ccccc3)cc2)NC(=O)[C@H](C(C)C)NC(=O)[C@H](Cc2c[nH]c3ccccc23)NC(=O)[C@H](CC(=O)O)NC(=O)[C@H](Cc2ccc(O)cc2)NC(=O)[C@H](Cc2ccccc2)NC(=O)CSC[C@@H](C(=O)NCC(N)=O)NC(=O)[C@H](CCCN)NC(=O)[C@H](C(C)C)NC1=O [Example 1338] ({CH2CO}-FYDWV[Bip]R[NMeA][NMeF]RLV[Orn]CG-NH2; thioether N-14)
IC50: 110 nM

CC(C)C[C@@H]1NC(=O)[C@H](Cc2c[nH]c3ccccc23)NC(=O)[C@H](CC(=O)O)NC(=O)[C@H](Cc2ccc(OCC(=O)O)cc2)NC(=O)[C@H]([C@@H](C)O)NC(=O)CSC[C@@H](C(=O)N[C@@H](CCN)C(N)=O)NC(=O)[C@H](CO)NC(=O)[C@H](C(C)(C)O)NC(=O)[C@H](CC2CCCCC2)NC(=O)[C@H](CCN)NC(=O)[C@H]2CCCCN2C(=O)[C@H]2CCCN2C(=O)[C@H](C(C)C)NC(=O)[C@H](Cc2ccc(-c3ccccc3)cc2)NC1=O [Example 1188] ({CH2CO}-TY(Carboxymethyl)DWL[Bip]V[dP][dPip][Dab][Cha][Val(3-OH)]SC[Dab]-NH2; thioether N-14)
IC50: 50 nM

CC[C@@H]1NC(=O)[C@H](Cc2c[nH]c3ccccc23)NC(=O)[C@H](CC(=O)O)NC(=O)[C@H](Cc2ccc(O)cc2)NC(=O)[C@H](Cc2ccccc2)NC(=O)CSC[C@@H](C(=O)NCC(N)=O)NC(=O)[C@H](CO)NC(=O)[C@H](C(C)C)NC(=O)[C@H](CC(C)C)NC(=O)[C@H](CCCNC(=N)N)NC(=O)[C@H](Cc2ccccc2)N(C)C(=O)[C@H](C)N(C)C(=O)[C@H](CCCNC(=N)N)NC(=O)[C@H](Cc2ccc(-c3ccccc3)cc2)NC1=O [Example 1336] ({CH2CO}-FYDW[Abu][Bip]R[NMeA][NMeF]RLVSCG-NH2; thioether N-14)
IC50: 410 nM
